We go through 3 molecules from patent publication US20030229132A1, “Small molecule modulators of apoptosis” (priority 2002, published 2003).

Experiment [1] has as its system Jurkat cells. Kind of experiment: DNA fragmentation analysis in Jurkat cells. Type of experiment: cell-based, human. To be noted: 50 μM compound or 1 μM staurosporin, 8 hr.
Experiment [2] has as its target T1, Apaf-1 (Homo sapiens, UniProt O14727).
T1 construct: resulting in full-length Apaf-XL with a C-terminal six histidine tag; six histidine tag (His6) (C); made in house; host or cells: insect cells (Hi-5), baculovirus vector pFastbacHT / pFastbacH
T1 sequence (O14727 1-1248): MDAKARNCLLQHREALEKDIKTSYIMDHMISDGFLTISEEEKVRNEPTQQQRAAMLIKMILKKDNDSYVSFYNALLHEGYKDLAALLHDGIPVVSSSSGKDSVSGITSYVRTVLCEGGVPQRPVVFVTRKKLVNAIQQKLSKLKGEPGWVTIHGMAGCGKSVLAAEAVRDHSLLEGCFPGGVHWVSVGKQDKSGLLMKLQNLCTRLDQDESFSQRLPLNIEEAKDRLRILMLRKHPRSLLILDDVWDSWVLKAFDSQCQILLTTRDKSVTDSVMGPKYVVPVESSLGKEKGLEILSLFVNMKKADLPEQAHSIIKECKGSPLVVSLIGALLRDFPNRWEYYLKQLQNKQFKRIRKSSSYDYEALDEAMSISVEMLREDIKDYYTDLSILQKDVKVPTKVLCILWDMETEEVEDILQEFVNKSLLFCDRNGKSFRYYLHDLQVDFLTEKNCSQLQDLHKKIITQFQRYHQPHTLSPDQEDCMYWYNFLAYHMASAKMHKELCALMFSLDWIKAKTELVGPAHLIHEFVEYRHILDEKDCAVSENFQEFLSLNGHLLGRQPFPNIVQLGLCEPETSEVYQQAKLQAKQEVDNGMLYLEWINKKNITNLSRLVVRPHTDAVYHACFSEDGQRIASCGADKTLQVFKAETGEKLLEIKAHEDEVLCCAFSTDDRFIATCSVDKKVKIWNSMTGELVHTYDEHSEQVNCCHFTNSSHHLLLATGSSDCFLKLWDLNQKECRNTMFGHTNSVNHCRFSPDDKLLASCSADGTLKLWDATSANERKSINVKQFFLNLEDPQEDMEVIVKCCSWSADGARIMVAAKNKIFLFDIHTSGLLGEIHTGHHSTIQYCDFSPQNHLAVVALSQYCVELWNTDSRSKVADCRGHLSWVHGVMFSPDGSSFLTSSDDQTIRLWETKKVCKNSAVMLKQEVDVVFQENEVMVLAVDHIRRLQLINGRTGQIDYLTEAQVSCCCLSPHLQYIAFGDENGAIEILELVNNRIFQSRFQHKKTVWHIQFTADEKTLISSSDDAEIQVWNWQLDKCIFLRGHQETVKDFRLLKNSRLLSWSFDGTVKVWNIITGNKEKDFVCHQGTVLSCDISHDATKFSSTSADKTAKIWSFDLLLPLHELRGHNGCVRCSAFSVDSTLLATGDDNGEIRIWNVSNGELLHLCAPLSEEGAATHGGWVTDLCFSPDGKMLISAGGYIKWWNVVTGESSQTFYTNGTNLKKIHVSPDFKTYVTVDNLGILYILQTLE
Description: Apaf-1 oligomerization by gel filtration. Type of experiment: biochemical. To be noted: for increase of oligomerization of Apaf-1 over the vehicle alone: 20 μM compound, 0.15 μM cyto c; for Apaf-1 complex assembly in the absence of cyto c: no cyto c. As to the method:
FIG. 7 depicts activity of compounds 1-5 at low cyto c concentrations in a purified system. Apaf-1 was incubated with vehicle, cyto c, or cyto c plus 20 μM compound as indicated, and then separated on a Superose 6 gel filtration column. Individual fractions were assayed for relative Apaf-1 concentrations by capture ELISA (bar graph), or the ability to activate procaspase-3 processing in lysates (line graph). The percent of Apaf-1 in apoptosomes was determined by dividing the amount of Apaf-1 in fractions 8-11 by the total amount of Apaf-1. The extent of caspase-3 activation (given in arbitrary units) corresponds to the area under the curve for fractions 8-11 in each panel. Black bars represent fractions used for calculations.
As the compounds appeared to be acting prior to caspase activation, their effect on the oligomerization of Apaf-1 was assessed (K. Cain, D. G. Brown, C. Langlais, G. M. Cohen, J Biol Chem 274, 22686-92 (1999); K. Cain et al., J Biol Chem 275, 6067-70 (2000)). By gel filtration, Apaf-1 normally runs as a monomer of ˜140 kD (FIG. 7) (see, A. Saleh, S. M. Srinivasula, S. Acharya, R. Fishel, E. S. Alnemri, J Biol Chem 274, 17941-5 (1999)). Incubation of Apaf-1 with 5 μM cyto c induces over 90% of the Apaf-1 to form large complexes of ˜700 kD, whereas incubation with 0.15 μM cyto c concentration allowed only 22% of the Apaf-1 to assemble into complexes. However, the addition of 20 μM compound 2 or 5 at the lower cyto c concentration caused the formation of two higher molecular weight complexes: a major peak that runs at the same retention time as the complex seen at 5 μM cyto c (˜700 kD), and a minor peak that elutes in the void volume. […] To determine if the Apaf-1 complexes induced by the compounds at the lower cyto c concentration are competent for caspase activation, procaspase-9, procaspase-3, and dATP were added to fractions from the gel filtration column and assayed for caspase-3 activation. Fractions from samples that had been incubated with 5 μM cyto c strongly activated caspase-3 processing (FIG. 7, panel ii, line graph), with the maximal caspase activation corresponding to the fractions that contained the apoptosome complex. On the other hand, no fractions form the sample without cyto c activated capsase-3 processing (panel i). There was a small but measurable amount of capsase-3 activation when the cyto c concentration was reduced to 0.15 μM (panel iii). However, the extent of caspase-3 activation at the reduced level of cyto c increased approximately 4-fold when either compound 2 or 5 was added to the reaction (from 0.36 arbitrary units for the vehicle alone to 1.57 and 1.4 for compounds 2 and 5, respectively, panels iv and vi). […] Again, there was no increase in capsapse-3 activation when compounds were incubated with Apaf-1 in the absence of cyto c.
Bovine heart cyto c is purchased from Sigma and used without further purification. The XL form of Apaf-1 is cloned into pFastbacH and expressed in insect cells, resulting in full-length Apaf-XL with a C-terminal six histidine tag. Purification of Apaf-1 is according to A. Saleh, et al., J Biol Chem 274, 17941-45 (1999). 100 μL of 2 μM Apaf-1 is combined with 300 μM dATP in a mixture, with or without the further addition of 0.15 μM cyto c or compounds and heated for 30 min at 37° C.
The mixtures are next injected into a Superose 6 gel filtration column and separated at 0.4 mL/min in PBS; 0.8 mL fractions are collected 10 min after injection. […]
On the technique in general: In gel filtration, larger molecules generally elute earlier.

Turning to `O=C(NCc1ccc(Cl)c(Cl)c1)OC1CCc2ccccc21` (centres unmarked) [Compound 4], the DNA fragmentation result in experiment [1] is reported as “less pronounced effect”. In addition, the “increase of oligomerization of Apaf-1 over the vehicle alone” value (from here on “increase”) in experiment [2] is on record as “no effect”.

With `O=C1C(=O)N(Cc2ccc(Cl)c(Cl)c2)c2ccccc21` [Compound 2], the DNA fragmentation result in experiment [1] is “induced DNA fragmentation”. Moreover, in experiment [2], the “increase” value is “about 1.5 fold” and the “Apaf-1 complex assembly in the absence of cyto c” value is given as “no complex assembly”.

On to `O=C(NCc1ccc(Cl)c(Cl)c1)OC1CCc2ccccc21` (centres unmarked) [Compound 5], for which, in experiment [1], the DNA fragmentation result is “induced DNA fragmentation”. In addition, in experiment [2], the “increase” value is “about 1.5 fold” and the “Apaf-1 complex assembly in the absence of cyto c” value is recorded as “no complex assembly”.
